Measured values published in patent publication US8809001B2, “High throughput assays for inhibitors and activators of PAQR receptors” (University of Florida Research Foundation, Inc., priority 2007, dated 2014).
pEC50: −log10 of the molar value. Where two headings read alike, the source gives them in different places.

Columns and labels:
[1] = biological target: T1, mPRα (Homo sapiens, UniProt Q86WK9); test: cell-based; details: for activation of mPRα, alterations at the 17 and 21 positions of the pregnane ring (in words): further analysis of mPRα (pRS316 plasmid, 2% galactose per FIG. 7C); for agonist activity on mPRα (in words): FET3-lacZ, steroids up to 10 μM
T1 construct: Full length and truncated mPRγ and mPRα were expressed in wild type cells grown in 2% galactose from the pGREG536 vector; expressed in transfected cells; host or cells: Saccharomyces cerevisiae (BY4742 wild type; also gpa mutants), GAL1-driven plasmids (TPI1 promoter in pJK90)
T1 sequence (Q86WK9 1-346): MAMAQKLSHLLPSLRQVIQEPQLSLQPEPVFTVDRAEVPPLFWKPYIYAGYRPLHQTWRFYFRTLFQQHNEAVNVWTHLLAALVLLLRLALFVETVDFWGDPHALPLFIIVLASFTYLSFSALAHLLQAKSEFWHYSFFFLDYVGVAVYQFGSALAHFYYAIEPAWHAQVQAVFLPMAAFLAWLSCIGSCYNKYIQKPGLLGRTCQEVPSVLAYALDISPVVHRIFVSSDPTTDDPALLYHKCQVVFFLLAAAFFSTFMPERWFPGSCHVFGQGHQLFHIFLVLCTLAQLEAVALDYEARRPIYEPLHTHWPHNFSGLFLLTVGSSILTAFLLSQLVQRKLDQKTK
From the text: Plasmids and primers. Human PAQRs were cloned into various vectors by PCR from commercially/publically available cDNAs. […] The OST4 open reading frame in pJK90 was replaced with the PAQR6 and mPRα open reading frames by gap repair. Primers for all cloning reactions are listed herein. Proteins expressed in pYES260 have an N-terminal 6×-histidine tag followed by a TEV protease cleavage site. Proteins expressed in pGREG536 have an N-terminal 7×-HA tag. Proteins expressed in the pRS316 vector are untagged. The pYES260, pRS316 and pGREG536 vectors allow for galactose-inducible expression via the GAL1 promoter. […] A pRS316-based plasmid containing the STE2 gene under the control of the GAL1 promoter (Feng et al., 2000) was kindly provided by Dr. Nicholas G. Davis (Wayne State University).
Assays and growth conditions. Strains were maintained using standard protocol and grown in synthetic defined (SD) media with the appropriate amino acids to match the auxotrophies of the individual strains. […] In brief, overnights of cells grown in SD-glucose media were re-inoculated into iron-deficient LIM to induce the expression of FET3. […] All ligands were added to the growth medium upon re-inoculation into LIM. For experiments in which steroids were added as ligands, steroids were added from ethanol stocks and “untreated” controls are actually treated with an equal volume of ethanol to control for vehicle effects. […] All experiments were performed at least three times and a representative experiment is shown. EC50 values were obtained using the web-based BioDataFit software using sigmoidal curve-fitting. (web site changbioscience.com/stat/ec50.html)

[2] = biological target: T2, mPRγ (Homo sapiens, UniProt Q9NXK6); test: FET3-lacZ reporter repression in yeast expressing mPRγ; type: cell-based; details: for agonist activity on mPRγ (in words): FET3-lacZ, steroids up to 10 μM
T2 construct: Full length and truncated mPRγ and mPRα were expressed in wild type cells grown in 2% galactose from the pGREG536 vector; expressed in transfected cells; host or cells: Saccharomyces cerevisiae (BY4742 wild type; also gpa mutants), GAL1-driven plasmids
T2 sequence (Q9NXK6 1-330): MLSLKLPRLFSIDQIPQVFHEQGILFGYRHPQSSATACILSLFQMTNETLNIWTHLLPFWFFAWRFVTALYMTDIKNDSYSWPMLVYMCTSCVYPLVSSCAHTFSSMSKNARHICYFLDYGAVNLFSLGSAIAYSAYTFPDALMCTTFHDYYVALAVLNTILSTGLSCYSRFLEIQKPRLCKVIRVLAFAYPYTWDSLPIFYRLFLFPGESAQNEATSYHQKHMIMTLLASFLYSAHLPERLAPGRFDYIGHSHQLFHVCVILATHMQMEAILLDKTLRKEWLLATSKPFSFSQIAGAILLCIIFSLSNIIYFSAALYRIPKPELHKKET
From the text: Plasmids and primers. Human PAQRs were cloned into various vectors by PCR from commercially/publically available cDNAs. PAQRs were cloned into the pYES260 (Melcher, 2000), pRS316 (Liu et al., 1992) or pGREG536 (Jansen et al., 2005) expression vectors using gap repair. The pJK90 plasmid containing a Dual Topology Reporter (DTR)-tagged OST4 gene driven by the constitutive TPI1 promoter was kindly provided by Dr. Gunnar von Heijne (Stockholm University) (Kim et al., 2003). The OST4 open reading frame in pJK90 was replaced with the PAQR6 and mPRα open reading frames by gap repair. Primers for all cloning reactions are listed herein. Proteins expressed in pYES260 have an N-terminal 6×-histidine tag followed by a TEV protease cleavage site. Proteins expressed in pGREG536 have an N-terminal 7×-HA tag. Proteins expressed in the pRS316 vector are untagged. The pYES260, pRS316 and pGREG536 vectors allow for galactose-inducible expression via the GAL1 promoter. […] The FET3-lacZ plasmid was previously described (Kupchak et al., 2007). Plasmids derived from pADM4 carrying hyperactive alleles of Gpa1p (Gpa1p^Q323L) (Slessareva et al., 2006) and Gpa2p (Gpa2p^Q300L) (Harashima et al., 2002) driven by the ADH1 promoter were kindly provided by Dr. Henrik Dohlman (UNC Chapel Hill). A pRS316-based plasmid containing the STE2 gene under the control of the GAL1 promoter (Feng et al., 2000) was kindly provided by Dr. Nicholas G. Davis (Wayne State University).
(§1) Assays and growth conditions. Strains were maintained using standard protocol and grown in synthetic defined (SD) media with the appropriate amino acids to match the auxotrophies of the individual strains. Low Iron Medium (LIM) contains EDTA to limit iron-bioavailability and its composition has been previously described (Kupchak et al., 2007). […] In brief, overnights of cells grown in SD-glucose media were re-inoculated into iron-deficient LIM to induce the expression of FET3. 2% galactose was used as a carbon source to induce full expression of PAQR genes driven by the GAL1 promoter, while 0.05% galactose/1.95% raffinose was used for reduced PAQR expression. All ligands were added to the growth medium upon re-inoculation into LIM. For experiments in which steroids were added as ligands, steroids were added from ethanol stocks and “untreated” controls are actually treated with an equal volume of ethanol to control for vehicle effects. Cells were allowed to grow to mid-log phase at which time the activity of the FET3 gene was monitored using a FET3-lacZ promoter-reporter construct. lacZ activities are presented as a percentage of activity seen in untreated cells expressing the appropriate empty expression vector control. For individual experiments, each data point has been done in triplicate and the error bars represent +/−1 standard deviation. All experiments were performed at least three times and a representative experiment is shown. EC50 values were obtained using the web-based BioDataFit software using sigmoidal curve-fitting. (web site changbioscience.com/stat/ec50.html)

[3] = system: FET3; test: FET3-lacZ reporter in wild type yeast carrying empty expression plasmid; type: cell-based, Saccharomyces cerevisiae; details: no human PAQR
From the text: as §1

[4] = read-out: EC50 for the activation of mPRα

SMILES | activation of mPRα, alterations at the 17 and 21 positions of the pregnane ring (in words) [1] | pEC50 [1, 4] | agonist activity on mPRα (in words) [1] | agonist activity on mPRγ (in words) [2] | further results
C[C@]12CCC(=O)C=C1CC[C@@H]1[C@@H]2CC[C@@]2(C)[C@H]1CC[C@]2(O)C(=O)CO [17α,21-dihydroxyprogesterone] | similarly effective activators | ~8.00 |  |  | 
C[C@]12CC[C@H]3[C@@H](CCC4=CC(=O)CC[C@@]43C)[C@@H]1CC[C@@H]2O [testosterone] |  |  | no agonist activity | no agonist activity | increase of the EC50 of progesterone for mPRγ ([2]; in the presence of 10 μM of the named steroid): 10 fold
CC#C[C@]1(O)CC[C@H]2[C@@H]3CCC4=CC(=O)CCC4=C3[C@@H](c3ccc(N(C)C)cc3)C[C@@]21C [RU-486, Mifepristone] |  |  | weak agonist | weak agonist | pEC50 ([1]; EC50, mPRα, ligand alone): 4.96; effect of ligand on FET3 in cells carrying empty expression plasmid [3]: had no effect; increase in the EC50 of progesterone for the activation of mPRγ ([2]; exposure of cells to 100 nM RU-486): 15 fold; antagonism of mPRγ ([2]; in the presence of 100 nM progesterone, effect disappears at higher concentrations): weakly antagonizes; pEC50 ([2]; mPRγ column of Table 4, ligand alone): 5.17; pEC50 ([2]; mPRγ, weak agonist at high concentrations): < 5.30
C[C@]12CCC(=O)C=C1CC[C@@H]1[C@@H]2[C@@H](O)C[C@@]2(C)[C@H]1CC[C@]2(O)C(=O)CO [11β,17α,21-trihydroxyprogesterone] | ineffective agonist |  |  |  | 
C[C@]12CC[C@H]3[C@@H](CCC4=CC(=O)CC[C@@]43C)[C@@H]1CC[C@@H]2C(=O)CO [21-hydroxyprogesterone] | similarly effective activators | ~8.00 |  |  | 
